# According to patent publication EP4800018A1, “PAN-KRAS INHIBITOR AND USE THEREOF IN MEDICINES” (Betta Pharmaceuticals Co., Ltd., priority 2023, dated 2025):
# pIC50: −log10 of the molar value. Like-named read-outs stand apart in the source and are kept apart here.
# Key:
# Assay type in all cases: cell-based
# KRAS G12V-cRAF = target: T1, KRAS G12V-cRAF (Homo sapiens, UniProt P01116, G12V); experiment: Cellular KRAS G12V-cRAF Binding Inhibition Assay (NanoBRET, AD293 stable cells); details: 3 h incubation
# T1 construct: expressed in transfected cells
# T1 sequence (P01116 1-188 isoform P01116-2 G12V): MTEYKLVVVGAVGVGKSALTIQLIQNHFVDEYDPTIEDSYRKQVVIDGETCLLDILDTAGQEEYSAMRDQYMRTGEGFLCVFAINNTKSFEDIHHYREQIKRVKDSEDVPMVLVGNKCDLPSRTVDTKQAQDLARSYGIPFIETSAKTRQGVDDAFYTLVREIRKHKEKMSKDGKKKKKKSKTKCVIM
# Procedure: NanoLuc® luciferase was used as the energy donor, and NanoBRET™ 618 fluorescent ligand labeled with the HaloTag® protein was used as the energy acceptor to detect protein-protein interactions in living cells. […] Except for wells with medium added as a blank control, NanoBRET™ 618 fluorescent ligand was added to all other wells, and the plates were cultured overnight in a cell culture incubator. […] The luminescence data were calculated and converted into inhibition percent. The inhibition percent of KRAS G12V-cRAF binding was calculated according to the following formula: Inhibition Percent = (MaxValue−MeasuredValue)/(MaxValue−Blank) × 100% [formula] […] Curve fitting was performed using GraphPad Prism software to obtain IC50 values, see Table 1.
# KRAS G12D-cRAF = target: T2, KRAS G12D-cRAF (Homo sapiens, UniProt P01116, G12D); experiment: Cellular KRAS G12D-cRAF Binding Inhibition Assay (NanoBRET, AD293 stable cells); details: 3 h incubation
# T2 construct: expressed in transfected cells
# T2 sequence (P01116 1-188 isoform P01116-2 G12D): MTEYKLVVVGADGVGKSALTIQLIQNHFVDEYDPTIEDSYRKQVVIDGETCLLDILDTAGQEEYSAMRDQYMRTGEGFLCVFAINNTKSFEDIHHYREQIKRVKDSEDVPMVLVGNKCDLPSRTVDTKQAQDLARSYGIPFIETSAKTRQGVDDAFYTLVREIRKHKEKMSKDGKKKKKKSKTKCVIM
# Procedure: NanoLuc® luciferase was used as the energy donor, and NanoBRET™ 618 fluorescent ligand labeled with the HaloTag® protein was used as the energy acceptor to detect protein-protein interactions in living cells. AD293 stable cells transfected with KRAS G12D-NanoLuc® luciferase and cRAF RBD-HaloTag® tag protein were seeded in 96-well plates at a cell density of 1×10^4 cells/well. Except for wells with medium added as a blank control, NanoBRET™ 618 fluorescent ligand was added to all other wells, and the plates were cultured overnight in a cell culture incubator. […] The luminescence data were calculated and converted into inhibition percent. The inhibition percent of KRAS G12D-cRAF binding was calculated according to the following formula: Inhibition Percent = (MaxValue−MeasuredValue)/(MaxValue−Blank) × 100% [formula] […] Curve fitting was performed using GraphPad Prism software to obtain IC50 values, see Table 1.
# [1] = tested on: KRAS-G12D mutant tumor cells AGS; experiment: Cell Proliferation Inhibition Assay (AGS), Cell-titer GLO, 96 h; details: Homo sapiens, AGS, 96 h, read-out: AGS(G12D)
# Procedure: KRAS-G12D mutant tumor cells AGS were seeded in low-attachment 96-well plates at a cell density of 1×10^3 cells/well and cultured overnight in a cell culture incubator. […] After incubation at 37°C for 96 h, 50 µL of Cell-titer GLO working solution was added to each well, mixed by shaking, incubated at room temperature for 10 min, and the Luminescence value was read on a multi-function microplate reader. The luminescence data were calculated and converted into inhibition percent. The inhibition percent of cell proliferation was calculated according to the following formula: Inhibition Percent = (MaxValue−MeasuredValue)/(MaxValue−Blank) × 100% [formula] […] Curve fitting was performed using GraphPad Prism software to obtain IC50 values, see Table 1.
# [2] = tested on: KRAS-G12V mutant tumor cells SW620; experiment: Cell Proliferation Inhibition Assay (SW620), Cell-titer GLO, 96 h; details: Homo sapiens, SW-620, 96 h, read-out: SW620(G12V)
# Procedure: KRAS-G12V mutant tumor cells SW620 were seeded in low-attachment 96-well plates at a cell density of 1×10^3 cells/well and cultured overnight in a cell culture incubator. After the cells adhered, the test compounds were added to the 96-well plates at final concentrations of 10000, 2000, 400, 80, 16, 3.2, 0.64, 0.13, 0.03, 0 nM (final concentration of DMSO was 0.5% for all). After incubation at 37°C for 96 h, 50 µL of Cell-titer GLO working solution was added to each well, mixed by shaking, incubated at room temperature for 10 min, and the Luminescence value was read on a multi-function microplate reader. The luminescence data were calculated and converted into inhibition percent. The inhibition percent of cell proliferation was calculated according to the following formula: Inhibition Percent = (MaxValue−MeasuredValue)/(MaxValue−Blank) × 100% [formula]
# ("Max Value" comes from the 0.5% DMSO control well, "Blank" comes from the blank control well, and "Measured Value" comes from the compound-treated well).
# Curve fitting was performed using GraphPad Prism software to obtain IC50 values, see Table 1.
# [3] = AGS cells, 96 h incubation, Cell-titer GLO
# [4] = SW620 cells, 96 h incubation, Cell-titer GLO
Compound,pIC50 (KRAS G12V-cRAF; read-out: NanoBRET KRAS G12V),pIC50 (KRAS G12D-cRAF; read-out: NanoBRET KRAS G12D),"pIC50 [1, 3]","pIC50 [2, 4]",pIC50 (KRAS G12V-cRAF; NanoBRET KRAS G12V),pIC50 (KRAS G12D-cRAF; NanoBRET KRAS G12D),pIC50 [1],pIC50 [2]
"C[C@@H]1OCCCn2c(c3c4cc(ccc42)-c2csc(n2)C[C@H](NC(=O)[C@H]2C[C@@H]2C)C(=O)N2CCC[C@H](N2)C(=O)OCC(C)(C)C3)-c2cc(N3CCN(C)CC3)cnc21 [Example 1, (1S,2S)-2-methyl-N-((1^5S,6^3S,4S,Z)-1^5,10,10-trimethyl-1^2-(4-methylpiperazin-1-yl)-5,7-dioxo-1 ^8,1^9,6^1,6^2,6^3,6^4,6^5,6^6-octahydro-1^5H,1^7-oxa-1(13,15)-pyrido[3',2':7,8][1,5]oxazonino[5,6-a]indola-2(4,2)-thiazola-6(1,3)-pyridazinacycloundecaphane-4-yl)cyclopropane-1-carboxamide]",–,–,–,–,7.52,8.21,8.10,9.27
"C[C@H]1C[C@@H]1C(=O)N[C@H]1Cc2nc(cs2)-c2ccc3c(c2)c(c2n3CCCOCc3ncc(N4CCN(C)CC4)cc3-2)CC(C)(C)COC(=O)[C@@H]2CCCN(N2)C1=O [Example 2, (1S,2S)-N-((6^3S,4S,Z)-10,10-dimethyl-1^2-(4-methylpiperazin-1-yl)-5,7-dioxo-1^8,1^9,6^1,6^2,6^3,6^4,6^5 ,6^6-octahydro-1^5H,1^7H-8-oxa-1(13,15)-pyrido[3',2':7,8][1,5]oxazonino[5,6-a]indola-2(4,2)-thiazola-6(1,3)-pyridazinacycloundecaphane-4-yl)-2-methylcyclopropane-1-carboxamide]",–,–,–,–,6.69,7.54,8.06,8.81
"C[C@H]1C[C@@H]1C(=O)N[C@H]1Cc2nc(cs2)-c2ccc3c(c2)c(c2n3[C@@H](C)CCOCc3ncc(N4CCN(C)CC4)cc3-2)CC(C)(C)COC(=O)[C@@H]2CCCN(N2)C1=O [Example 4, (1S,2S)-2-methyl-N-((1^9S,6^3S,4S,Z)-1^9,10,10-trimethyl-1^2-(4-methylpiperazin-1-yl)-5,7-dioxo-1 ^8,1^9,6^1,6^2,6^3,6^4,6^5,6^6-octahydro-1^5H,1^7H-8-oxa-1(13,15)-pyrido[3',2':7,8][1,5]oxazonino[5,6-a]indola-2(4,2)-thiazola-6(1,3)-pyridazinacycloundecaphane-4-yl)cyclopropane-1-carboxamide]",–,–,–,–,6.19,6.81,7.28,8.21
"C[C@@H]1OCC[C@H](C)n2c(c3c4cc(ccc42)-c2csc(n2)C[C@H](NC(=O)[C@H]2C[C@@H]2C)C(=O)N2CCC[C@H](N2)C(=O)OCC(C)(C)C3)-c2cc(N3CCN(C)CC3)cnc21 [Example 5, (1S,2S)-2-methyl-N-((1^5S,1^9S,6^3S,4S,Z)-1^5,1^9,10,10-tetramethyl-1^2-(4-methylpiperazin-1-yl)-5,7-dioxo-1^8,1^9,6^1,6^2,6^3,6^4,6^5,6^6-octahydro-1^5H,1^7H-8-oxa-1(13,15)-pyrido[3',2':7,8][1,5]oxazonino[5,6-a]indola-2(4,2)-thiazola-6(1,3)-pyridazinacycloundecaphane-4-yl)cyclopropane-1-carboxamide]",–,–,–,–,7.10,7.59,8.16,8.97

# More lines, main results first:
pIC50 (KRAS G12V-cRAF; read-out: NanoBRET KRAS G12V),pIC50 (KRAS G12D-cRAF; read-out: NanoBRET KRAS G12D),"pIC50 [1, 3]","pIC50 [2, 4]",Compound,pIC50 (KRAS G12V-cRAF; NanoBRET KRAS G12V),pIC50 (KRAS G12D-cRAF; NanoBRET KRAS G12D),pIC50 [1],pIC50 [2]
7.82,8.40,8.66,8.84,"CCN1CCN(c2cnc3c(c2)-c2c4c5cc(ccc5n2CCCOC3C)-c2csc(n2)CC(NC(=O)C2CC2C)C(=O)N2CCCC(N2)C(=O)OCC(C)(C)C4)CC1 [Example 21, (1S,2S)-N-((1^5S,6^3S,4S,Z)-12-(4-ethylpiperazin-1-yl)-1^5,10,10-trimethyl-5,7-dioxo-1^8,1^9,6^1,6^2,6^3 ,6^4,6^5,6^6-octahydro-1^5H,1^7H-8-oxa-1(13,15)-pyrido[3',2':7,8][1,5]oxazonino[5,6-a]indola-2(4,2)-thiazola-6(1,3)-pyridazinacycloundecaphane-4-yl)-2-methylcyclopropane-1-carboxamide]",–,–,–,–
7.64,8.18,8.58,8.99,"COCCN1CCN(c2cnc3c(c2)-c2c4c5cc(ccc5n2CCCOC3C)-c2csc(n2)CC(NC(=O)C2CC2C)C(=O)N2CCCC(N2)C(=O)OCC(C)(C)C4)CC1 [Example 22, (1S,2S)-N-((1^5S,6^3S,4S,Z)-1^2-(4-(2-methoxyethyl)piperazin-1-yl)-1^5,10,10-trimethyl-5,7-dioxo-1 ^8,1^9,6^1,6^2,6^3,6^4,6^5,6^6-octahydro-1^5H,1^7H-8-oxa-1(13,15)-pyrido[3',2':7,8][1,5]oxazonino[5,6-a]indola-2(4,2)-thiazola-6(1,3)-pyridazinacycloundecaphane-4-yl)-2-methylcyclopropane-1-carboxamide]",–,–,–,–
7.65,8.27,8.37,8.99,"CCN1CCN(c2cnc3c(c2)-c2c4c5cc(ccc5n2CCCOC3C)-c2csc(n2)CC(NC(=O)C23CC(C)(C2)C3)C(=O)N2CCCC(N2)C(=O)OCC(C)(C)C4)CC1 [Example 37, N-((1^5S,6^3S,4S,Z)-1^2-(4-ethylpiperazin-1-yl)-1^5,10,10-trimethyl-5,7-dioxo-1^8,1^9,6^1,6^2,6^3,6^4,6^56^6-octahydro-1^5H,1^7H-8-oxa-1(13,15)-pyrido[3',2':7,8][1,5]oxazonino[5,6-a]indola-2(4,2)-thiazola-6(1,3)-pyridazinacycloundecaphane-4-yl)-3-methylbicyclo[1.1.1]pentane-1-carboxamide]",–,–,–,–
7.50,8.07,8.38,8.76,"COCCN1CCN(c2cnc3c(c2)-c2c4c5cc(ccc5n2CCCOC3C)-c2csc(n2)CC(NC(=O)C23CC(C)(C2)C3)C(=O)N2CCCC(N2)C(=O)OCC(C)(C)C4)CC1 [Example 38, N-((1^5S,6^3S,4S,Z)-1^2-(4-(2-methoxyethyl)piperazin-1-yl)-1^5,10,10-trimethyl-5,7-dioxo-1^8,1^9,6^1,6 ^2,6^3,6^4,6^5,6^6-octahydro-1^5H,1^7H-8-oxa-1(13,15)-pyrido[3',2':7,8][1,5]oxazonino[5,6-a]indola-2(4 ,2)-thiazola-6(1,3)-pyridazinacycloundecaphane-4-yl)-3-methylbicyclo[1.1.1]pentane-1-carboxamide]",–,–,–,–
–,–,9.40,9.70,"CC(C)[C@@H](C(=O)N[C@H]1Cc2nc(cs2)-c2ccc3c(c2)c(c2n3CCCO[C@@H](C)c3ncc(N4CCN(C)CC4)cc3-2)CC(C)(C)COC(=O)[C@H]2NN(C1=O)C1CC2C1)N(C)C(=O)N(C)C [Example 204, (2S)-3-methyl-N-((1^5S,6^4S,4S,Z)-1^5,10,10-trimethyl-1^2-(4-methylpiperazin-1-yl)-5,7-dioxo-1^8,1^9-dihydro-1^5H,1^7H-8-oxa-6^2,6^3-diaza-1(13,15)-pyrido[3',2':7,8][1,5]oxazonino[5,6-a]indola-2(4,2) -thiazola-6(2,4)-bicyclo[3.1.1]heptanacycloundecaphane-4-yl)-2-(1,3,3-trimethylureido)butanamide]",–,–,–,–
